The structures appear in SMILES notation. Where only a bound is given, the exact number is not on record here.

Data set [1] is described as follows: physchem. Conditions: DMSO/water=7/3 solvent system.
Data set [2] is described as follows: solubility in 1.5 mol/liter aqueous NaOH at 55° C. (visual). Particulars: 1.5 mol/liter NaOH at 55° C., visual observation.

For `CCN(CC)S(=O)(=O)c1ccc(C)cc1` [A-42], the pKa in data set [1] was above 14. Also, the Solubility in data set [2] is below 1%.
On the same counts, the results for `OC(c1ccccc1)(c1ccccc1)c1ccccc1` [D-7] are above 14 and below 1%.
On the same counts, the results for `CN(C(=O)c1ccccc1)c1ccccc1` [FA-1] are above 14 and below 1%.
In the same order, the values of `CCN(C(=O)C1CCCCC1)C1CCCCC1` [FB-2] are above 14 and below 1%.
In turn, `O=C(C1CCCCC1)N(C1CCCCC1)C1CCCCC1` [FB-6] showed a pKa in data set [1] above 14. This compound showed a Solubility in data set [2] below 1%.

The values above are taken from patent publication US9091804B2, “Polymer film, and optically-compensatory film, polarizer and liquid-crystal display device comprising the same” (FUJIFILM Corporation, priority 2004, dated 2015).
